Structures can show the parent of a compound that is named as a salt.
Assay: RP, Waters ACQUITY UPLC BEH C18, 38 °C, 0.24 mL/min; A: water + 0.1% formic acid, pH 3; B: acetonitrile + 0.1% formic acid, pH 3; gradient (min/%B) 0/0 0.25/0 0.4/9 0.8/17 1.9/100 2.1/100 2.11/0 3/0
Settings: stereoisomer not certain

Row | Structure (SMILES) | LC retention time
1 | [NH3+]CCCCCC(=O)[O-] [6-Aminohexanoic acid] | 0.41 min
2 | O=C(O)C=Cc1ccccc1O [2-Hydroxycinnamic acid, predominantly trans] | 1.51 min
3 | O=C(O)CC(C(=O)O)C(O)C(=O)O (racemic) [DL-Isocitric acid trisodium salt] | 0.24 min
4 | NCC(O)c1ccc(O)c(O)c1 (single isomer, unassigned; (-)) [(-)-Norepinephrine] | 0.19 min
5 | C[N+](C)(C)CCOP(=O)(O)O [O-Phosphocholine] | 0.17 min
6 | N#Cc1cccnc1 [3-cyanopyridine] | 1.18 min
7 | NCC(N)C(=O)O (racemic) [DL-2,3-Diaminopropionic acid monohydrochloride] | 0.15 min
8 | Nc1ccn(C2OC(CO)C(O)C2O)c(=O)n1 (stereo not given) [Cytidine,cell culture tested] | 0.34 min
9 | O=S(=O)(O)Oc1c[nH]c2ccccc12 [3-Indoxylsulfate potassium salt] | 1.24 min
10 | NC(N)=NCCCC(N)C(=O)O (stereo not drawn) [L(+)-Arginine] | 0.16 min
11 | C[C@@H](O)[C@H](N)C(=O)O [L-Threonine] | 0.17 min
12 | CNC1(C)C2CCC(C2)C1(C)C (stereo not given) [Mecamylamine hydrochloride] | 1.35 min
13 | N[C@@H](Cc1ccc(O)cc1)C(=O)O [L-Tyrosine] | 0.61 min
14 | Nc1ccn(C2OC(COP(=O)(O)O)C(O)C2O)c(=O)n1 (stereo not given) [Cytidine-5'-monophosphate monohydrate] | 0.24 min
15 | N[C@@H](Cc1c[nH]c2ccccc12)C(=O)O [L-Tryptophane] | 1.16 min
16 | Nc1ncnc2c1ncn2C1OC(CO)C(O)C1O (stereo not given) [Adenosine] | 1.06 min
17 | COc1cc(CNC(=O)CCCCCCC(C)C)ccc1O [Dihydrocapsaicin] | 2 min
18 | COc1cc2c(cc1O)C1Cc3ccc(OC)c(O)c3CN1CC2 (stereo not given) [Scoulerin] | 1.37 min
19 | O=C[C@H](O)[C@H](O)COP(=O)(O)O [D-Erythrose-4-phosphate sodium salt] | 0.16 min

Row | Structure (SMILES) | LC retention time
20 | C[N+](C)(C)CCOP(=O)([O-])OCC(O)CO (stereo not given) [sn-Glycero-3-phosphocholine 1:1 cadmium chloride adduct] | 0.17 min
21 | CC(=O)C(=O)O [Sodium Pyruvate] | 0.22 min
22 | CN1C2CCC1CC(=O)C2 [Tropinone] | 0.24 min
23 | CN1CCCC1c1cccnc1 (racemic) [(-)-Nicotine ( solution 1.0 mg/mL+/-5% in methanol)] | 0.47 min
24 | CN(C)C(=N)N=C(N)N [1,1-Dimethylbiguanide hydrochloride] | 0.21 min
25 | COc1ccccc1C(=O)O [o-Anisic Acid] | 1.47 min
26 | NCC(=O)NCC(=O)O [Gly-Gly] | 0.16 min
27 | O=C(O)c1ccc(O)c(O)c1 [3,4-Dihydroxybenzoic acid] | 1.14 min
28 | O=c1cc(-c2ccc(O)c(OC3OC(CO)C(O)C(O)C3O)c2)oc2cc(OC3OC(CO)C(O)C(O)C3O)cc(O)c12 (stereo not given) [luteolin-3',7-di-O-glucoside] | 1.35 min
29 | O=C1OC2C(O)C(O)OC2C1O [D-Glucurono-6,3-lactone] | 0.19 min
30 | O=C(O)CCCCCCC(=O)O [Suberic acid] | 1.4 min
31 | CC1CCC2(NC1)OC1CC3C4CC=C5CC(O)CCC5(C)C4CCC3(C)C1C2C (stereo not given) [Solasodine] | 1.72 min
32 | O=C(O)C[C@@H]1CCCN1 [L-beta-homoproline-HCl] | 0.25 min
33 | CC(=O)NCCCNCCCCNCCCN [N1-Acetylspermine Trihydrochloride] | 0.14 min
34 | O=P(O)(O)O[C@H]1O[C@H](CO)[C@H](O)[C@H](O)[C@H]1O [alpha-D-Galactose-1-phosphate dipotassium salt pentahydrate] | 0.16 min
35 | O=C(O)CCCCC1CCSS1 (racemic) [(+-)-alpha-Lipoic acid] | 1.74 min
36 | Nc1ccccc1C(=O)O [Anthranilic acid] | 1.39 min
37 | CS(=O)CCCCN=C=S (racemic) [D,L-sulforaphane] | 1.44 min

Other lines, results leading:

Row | LC retention time | Structure (SMILES)
38 | 0.92 min | O=[N+]([O-])c1ccc(OP(=O)(O)O)cc1 [4-Nitrophenyl phosphate disodium salt hexahydrate]
39 | 0.15 min | NCCCCN=C(N)N [Agmatine sulfate salt]
40 | 1.42 min | COc1cc(C=Cc2cc(O)cc(OC3OC(CO)C(O)C(O)C3O)c2)ccc1O (stereo not given) [E-4,5'-dihydroxy-3-methoxy-3'-glucopyranosylstilbene]
41 | 0.55 min | NC(CCC(=O)NC(CS)C(=O)O)C(=O)O (stereo not given) [gamma-Glu-Cys]
42 | 1.55 min | O=C(O)c1ccccc1O [Salicylic Acid]
43 | 1.68 min | COc1ccccc1C=CC(=O)O [2-Methoxycinnamic acid]
44 | 0.17 min | CS(=O)(=O)O [Methanesulfonic acid solution]
45 | 1.15 min | O=C(O)c1ccco1 [2-Furoic acid]
46 | 1.81 min | C=CC(C)(O)CCC=C(C)CCC=C(C)C (stereo not drawn) [cis-Nerolidol]
47 | 0.16 min | NCCOP(=O)(O)O [O-Phosphorylethanolamine]
48 | 0.18 min | NC1(C(=O)O)CC1 [1-Aminocyclopropane-1-carboxylic acid]
49 | 0.7 min | O=c1[nH]cnc2c1ncn2C1CC(O)C(COP(=O)(O)O)O1 (stereo not given) [2'-Deoxyinosine-5'-monophosphate sodium salt]
50 | 0.17 min | O=C(O)[C@H](O)[C@@H](O)[C@H](O)[C@H](O)CO [D-Gluconic acid sodium salt]
51 | 1.54 min | COc1ccc(-c2cc(=O)c3c(O)cc(OC4OC(COC5OC(C)C(O)C(O)C5O)C(O)C(O)C4O)cc3o2)cc1 (stereo not given) [Linarin]
52 | 0.38 min | C=CCC(=NOS(=O)(=O)O)SC1OC(CO)C(O)C(O)C1O (stereo not given) [sinigrin]
53 | 1.32 min | CC(C)=CCNc1ncnc2nc[nH]c12 [6-(gamma,gamma-Dimethylallylamino)purine]
54 | 0.17 min | NC(CSS(=O)(=O)O)C(=O)O (stereo not given) [S-Sulfocysteine]
55 | 0.63 min | O=C(O)C=C(CC(=O)O)C(=O)O [trans-Aconitic acid]
56 | 0.15 min | NCCCC[C@H](N)C(=O)O [L-(+)-Lysine]
57 | 1.39 min | O=c1cc(-c2ccc(O)cc2)oc2c(C3OC(CO)C(O)C(O)C3O)c(O)cc(O)c12 (stereo not given) [Vitexin]
58 | 1.45 min | O=C1c2c(O)cc(O)cc2OC(c2ccc(O)c(O)c2)C1O (racemic) [(+-)-Taxifolin]
59 | 0.16 min | NCCS(=O)(=O)O [Taurine]
60 | 0.12 min | NC(=O)NC(CC(=O)O)C(=O)O (racemic) [Carbamoyl-DL-aspartic Acid]
61 | 0.62 min | Nc1ncnc2c1ncn2C1CC(O)C(COP(=O)(O)O)O1 (stereo not given) [2'-Deoxyadenosine-5'-monophosphate]

Row | LC retention time | Structure (SMILES)
62 | 1.34 min | O=c1c(-c2ccc(O)cc2)coc2cc(OC3OC(CO)C(O)C(O)C3O)ccc12 (stereo not given) [Daidzin]
63 | 1.09 min | N[C@@H](Cc1ccccc1)C(=O)O [L-(-)-Phenylalanine]
64 | 0.16 min | CNCC(=O)O [Sarcosine]
65 | 1.11 min | OCC1OC(Oc2cc3c(OC4OC(CO)C(O)C(O)C4O)cc(O)cc3[o+]c2-c2ccc(O)c(O)c2)C(O)C(O)C1O (stereo not given) [cyanidin-3,5-di-O-glucoside chloride]
66 | 1.36 min | COc1cc(-c2[o+]c3cc(O)cc(OC4OC(CO)C(O)C(O)C4O)c3cc2OC2OC(COC3OC(C)C(OC(=O)C=Cc4ccc(O)cc4)C(O)C3O)C(O)C(O)C2O)cc(O)c1O (stereo not given)
67 | 0.51 min | CC(O)(CC(=O)O)C(=O)O (single isomer, unassigned; (-)) [(-)-Citramalic acid]
68 | 1.67 min | COc1cccc(C=CC(=O)O)c1 [3-Methoxycinnamic acid]
69 | 0.18 min | O=C(O)C1=CCNCC1 [Isoguvacine hydrochloride]
70 | 1.42 min | CC1OC(OCC2OC(Oc3c(-c4ccc(O)cc4)oc4cc(O)cc(O)c4c3=O)C(O)C(O)C2O)C(O)C(O)C1O (stereo not given) [kaempferol-3-O-rutinoside]
71 | 0.25 min | CN1C=CC=CC1=CN=O [Pyridine-2-aldoxime methochloride]
72 | 0.24 min | CC(=O)OCC[N+](C)(C)C [Acetylcholine chloride]
73 | 0.16 min | NCC(=O)O [Glycine]
74 | 1.19 min | O=C(O)c1cc(=O)c2ccccc2[nH]1 [Kynurenic acid]
75 | 0.18 min | OC1COC(OC2COC(O)C(O)C2O)C(O)C1O (stereo not given) [Xylobiose]
76 | 0.19 min | CC([NH3+])C(=O)NC(C)C(=O)[O-] [D-Ala-D-ala]
77 | 0.72 min | Nc1nc2c(ncn2C2CC(O)C(COP(=O)(O)O)O2)c(=O)[nH]1 (stereo not given) [2'-deoxyguanosine 5'-monophosphate sodium salt hydrate]
78 | 0.7 min | O=c1[nH]c(=O)c2cn[nH]c2[nH]1 [Oxypurinol]
79 | 0.19 min | CC(=O)OC[C@H](N)C(=O)O [O-acetyl-L-serine hydrochloride]
80 | 0.95 min | NC(CCC(=O)NC(CS)C(=O)NCC(=O)O)C(=O)O [L-Glutathione (reduced form)]
81 | 1.41 min | O=C(O)/C=C/c1ccc(O)cc1 [4-Coumaric acid]
82 | 0.16 min | OCCNCCO [Diethanolamine]
83 | 0.16 min | O=P(O)(O)OCC(O)CO (racemic) [rac-Glycerol 3-phosphoate disodium salt hexahydrate]
84 | 1.42 min | CC(=O)NC(CC(C)C)C(=O)NC(CC(C)C)C(=O)NC(C=O)CCCN=C(N)N (stereo not given) [Leupeptin hemisulfate salt]
85 | 0.18 min | C[N+](C)(C)C[C@H](O)CC(=O)[O-] [L-Carnitine hydrochloride]

— the RepoRT retention time repository (doi:10.1093/pcp/pcn183)
